Experimental data: US20200276181A1, “THIENOISOQUINOLINES AND THEIR DERIVATIVES FOR TARGETING TUBULIN, CH-TOG, AURORA A KINASE, TPX2, CDK5RAP2 AND/OR ASPM” (VALORBEC, SEC, priority 2017, published 2020)

Assays:
Format in all cases: cell-based, human
[1] = test system: HeLa cells; experiment: Percentage of mitotic cells, nocodazole +/- C75; settings: 200 nM C75 + 33 or 66 nM nocodazole
[2] = test system: HeLa spheroids; experiment: Multicellular tumour spheroids
Protocol: (§1) FIGS. 5A, 5B, 5C, 5D, 5E, 5F, 5G, 5H, 5I, 5J, 5K, 5L and 5M show how C75 disrupts or reduces the growth of HeLa, HCT116 and A549 spheroids. FIG. 5A) images show HeLa spheroids over time (3 days) before and after treatment with control (1 μM C87; n=10), 250 nM (n=6) or 500 nM (n=10) of C75. The scale bar is 100 μm. FIG. 5B) is a series images of HeLa spheroids after three days of treatment with control (500 nM C87) or 500 nM C75. The spheroids were stained for fluorescein diacetate (to detect live cells) and propidium iodide (to detect dead cells). […] The scale bar is 100 μm. FIG. 5C) is a line graph showing the change in spheroid area (μm^2) for each day and treatment as indicated. Bars show standard deviation and the asterisks are p<0.05 as determined by the student's t test. FIG. 5D) images show HeLa spheroids over 3 days before and after treatment with empty nanoparticles (control; n=3) or 250 nM of nanoparticle-encapsulated C75 (n=3). The scale bar is 100 μm. […] Bars show standard deviation and the asterisks are p<0.05 as determined by the student's t test. FIG. 5F) is a series of images of HCT116 spheroids treated with control (1 μM C87; n=10), 500 nM C75 (n=10) and 1 μM C75 (n=10). […] Bars show standard deviation and the asterisks are p<0.05 as determined by the student's t test. […] Bars show standard deviation and the asterisks are p<0.05 as determined by the student's t test. […]

[3] = test system: A549 spheroids; experiment: Multicellular tumour spheroids
Protocol: as §1

SMILES: COc1ccc(S(=O)(=O)N2Cc3ccccc3-c3sc(Br)cc32)cc1 [Compound C75]
- change in proportion of mitotic cells [1]: large change
- effect on spheroids [2]: disrupt
- effect on spheroids [3]: regress the growth
